According to patent US10092648B2, “Selective glucagon-like-peptide-2 (GLP-2) analogues” (Zealand Pharma A/S, priority 2006, dated 2018):

Experiments:
[1] = tested on: male C57BL mice; experiment: In vivo stimulation of intestinal growth, 200 nmol/kg (Example 11); conditions: for Sensitivity index Si/Colon: relative to 1559
Experimental: The ability of further compounds to selectively stimulate small intestinal mass, relative to colon mass was determined in male C57BL mice. A similar protocol was used to that described above in Example 10 except that 200 nmol/kg of each compound was administered per day. Thus, individual groups (n=6-10) of mice were given 200 nmol/kg of each compound, s.c, once daily for three consecutive days. Other groups of animals were given either an equimolar dose of [[…]]GLP-2 (reference compound) or vehicle (phosphate buffered saline, pH 7.4; negative controls) in the same dosing regimen. Twenty-four hours after the last dose of compound the mice were sacrificed and the stomach, small intestine and the colon emptied and weighed.

[2] = tested on: male C57BL mice; experiment: In vivo stimulation of stomach growth, 200 nmol/kg (Example 12)
Experimental: The effects of the test compounds according to the invention were determined based on the ability of the peptides to selectively increase stomach mass, relative to vehicle control. The ability of the present compounds (ZP2395, ZP2396, ZP2400, ZP2412, ZP2394 and ZP2401) to selectively stimulate stomach mass, relative to colon mass was determined in male C57BL mice. Individual groups (n=6-10) of mice were given 200 nmol/kg of each compound, s.c, once daily for three consecutive days. For comparison purposes other groups of animals were given either an equimolar dose of [[…]]GLP-2 or vehicle (phosphate buffered saline, pH 7.4) in the same dosing regimen. Twenty-four hours after the last dose of compound had been given the mice were sacrificed and the stomach and small intestine (from the pylorus to the ileocaecal junction) emptied and weighed. To correct for slight difference in body weight (BW), the organ mass of the stomach is presented relative to BW. […] To evaluate the differential growth pattern induced by ZP compounds, compared to [[…]]GLP-2, on the stomach, the stomach-colon sensitivity index of compound X was calculated as: (Stomach/Colon)x/Stomach/(Colon)[[…]]GLP-2% Compounds with a stomach/colon sensitivity greater than or equal to 1.05 were considered relatively selective for the stomach.

[3] = 200 nmol/kg s.c. once daily for 3 days
[4] = colon weight relative to body weight, relative to ZP1559
[5] = small intestine weight relative to body weight, relative to ZP1559
[6] = 200 nmol/kg s.c. once daily for 3 days, relative to 1559

Substance | Colon-BW, compared to 1559 in % [1, 3] [%] | Preferential stimulation of epithelial growth in the small intestine (summary) [1, 3] | SI-BW, compared to 1559 in % [1, 3] [%] | Selectivity for small intestinal mass relative to colon mass (FIG. 6) [1, 3] | Sensitivity index Si/Colon [1, 3] | Colon-BW, compared to 1559 in % [1, 4] [%] | SI-BW, compared to 1559 in % [1, 5] [%] | Sto-BW, compared to 1559 in % [2, 3] [%] | Sensitivity index Stomach/Co [2, 6] | Sensitivity index Stomach/Co ([2]; ratio Stomach-BW / Colon-BW) | Preferential stimulation of epithelial growth in the stomach (summary) [2, 3] | Selectivity for stomach mass relative to colon mass (FIG. 7) [2, 3] | Organ selectivity (FIG. 8, unselective compounds) [1, 3]
H-HGEGSFSDELSTILEALAASDFISWLISTKITD-NH2 [ZP2398] | 97 | preferentially stimulating epithelial growth in the small intestine | 108 | selectively increase small intestinal mass, relative to colon mass | 1.11 | 97 | 108 | 102 | 1.05 | 1.05 | – | – | –
H-HGEGSFSDELKTILEKLAAKDFIKWLIKTKITDKKKKKK-NH2 [ZP2395] | 97 | – | 98 | – | 1.01 | 97 | 98 | 113 | 1.16 | 1.16 | preferentially stimulating epithelial growth in the stomach | selectively increase stomach mass, relative to colon mass | –
H-HGEGSFSDELLTILELLAASDFISWLISTKITDKKKKKK-NH2 [ZP2394] | 96 | – | 105 | – | 1.09 | 96 | 105 | 109 | 1.14 | 1.14 | preferentially stimulating epithelial growth in the stomach | selectively increase stomach mass, relative to colon mass | –
H-HGEGSFSDELATI LEALAASDFIAWLIATKITDKKKKKK-NH2 [ZP2423] | 109 | preferentially stimulating epithelial growth in the small intestine | 123 | selectively increase small intestinal mass, relative to colon mass | 1.13 | 109 | 123 | 94 | 0.86 | 0.86 | – | – | –
H-HGEGSFSDELATILEALAAADFIAWLISTKITD-NH2 [ZP2397] | 101 | preferentially stimulating epithelial growth in the small intestine | 122 | selectively increase small intestinal mass, relative to colon mass | 1.21 | 101 | 122 | 109 | 1.08 | 1.08 | – | – | –
H-HGEGSFSDELATILEALAASDFISWLISTKITDKKKKKK-NH2 [ZP2381] | 104 | preferentially stimulating epithelial growth in the small intestine | 123 | selectively increase small intestinal mass, relative to colon mass | 1.18 | 104 | 123 | 92 | 0.88 | 0.88 | – | – | –
H-HGEGSFSDELLTILELLAASDFISWLISTKITD-NH2 [ZP2400] | 106 | – | 106 | – | 1.00 | 106 | 106 | 111 | 1.05 | 1.05 | preferentially stimulating epithelial growth in the stomach | selectively increase stomach mass, relative to colon mass | –
H-HGEGSFSDELATILESLAAADFIAWLIATKITD-NH2 [ZP2414] | 106 | – | 105 | – | 0.99 | – | – | 110 | 1.04 | – | – | selectively increase stomach mass, relative to colon mass | unselective for the small intestine, colon or stomach
